In this experiment the target is human CCR2 (Homo sapiens, UniProt P41597). The experiment is described as follows: CCR2 functional calcium assay (FLIPR calcium flux, hMCP-1 challenge). It is filed as cell-based. Conditions: HEK293 EBNA cells transfected with human CCR2, hMCP-1 challenge; read-out: Functional CCR2 fKi. Set-up: expressed in transfected cells; host or cells: HEK293 EBNA cells. An excerpt:
The CCR2 receptor couples through the Gi/Gq signaling pathway and results in activation of calcium mobilization. The functional activity of test compounds was routinely tested by measuring the ability of compounds to antagonize CCR2 activity in a dose dependent manner, in HEK293 EBNA cells transfected with the human CCR2 receptor (hMCP-1 challenge), using a calcium flux Fluorescent Imaging Plate Reader FLIPR assay. Non-transfected HEK293 EBNA cells were used as control of non-specific response.
Briefly, test compounds were dissolved in dimethyl sulfoxide (DMSO) to a concentration of 10 mM and stored in matrix screenmate racks. The required amount of compound was transferred to 96-well compound plates on the day of assay and diluted in assay buffer to the required final concentration; dose-response measurements were assayed by making 1:3 serial dilutions to produce 10 point curves. The compounds were then transferred to 384-well assay plates ready for use. Top concentrations were adjusted depending on the potency of the compounds with a typical concentration range of 30 μM to 0.5 nM being used. The assay buffer used was HBSS buffer supplemented with 20 mM HEPES and 0.1% BSA, pH7.4. The loading/wash buffers were the same as the assay buffer.
Cells were suspended in culture medium at a density of 10000 cells/50 μl (the cell culture media composition was DMEM high glucose supplemented with 10% dialyzed FBS, 250 μg/ml Geneticin, and 400 μg/ml Hygromycin B), transferred to 384-well black/clear Costar plates (Costar #3712) (50 μl/well) and incubated at 37° C., in a 5% CO2/95% air humidified incubator for 16 h. The cells were washed with assay buffer at 37° C. using the Biotek ELx 405, washing 3 times, leaving 20 μl buffer in the well. 20 μl Fluo-4 (Fluo-4 stock solution (1 mM) was prepared by dissolving one vial of Fluo-4 (50 μg) in 45 μl of pluronic acid (240 mg/ml in DMSO). This stock solution of Fluo-4 was then diluted 250 times with loading buffer to give a Fluo-4 concentration of 4 μM. The dye solution (used within 2 h and kept away from light) was added to each well using a repeating multichannel pipette; the cells were then incubated at 37° C. for 60 min. Following the incubation, cells were washed in assay buffer at 37° C. using the Biotek ELx 405, washing 3 times, leaving 40 μl in each well and incubated for 10 min at 37° C. before use. A combined agonist/antagonist protocol was used. Compound (antagonist) was added to the cell plate using the FLIPR. Basal fluorescence was recorded every second for 10 seconds prior to compound addition (10 μl) and fluorescence recorded every second for 1 minute then every 6 seconds for a further 1 minute. Agonist (MCP-1) was then added using the FLIPR and fluorescence recorded as described above.
The positive control (agonist) was human recombinant MCP-1 which was stored as a stock concentration of 10 μM in distilled water and stored at −20° C. (maximal response: 30 nM; EC50 dose: 3-5 nM). The reference compound (antagonist) was RS102895 which was used as a 10 mM DMSO solution and stored at −20° C.
FLIPR responses were measured as peak minus basal fluorescence intensity and were expressed as a percentage of EC50 MCP-1 challenge. Curve-fitting and parameter estimation were carried out using GraphPad Prism 4.0 (GraphPad Software Inc., San Diego, Calif.).

Our source for the Ki values is patent publication US20130252951A1, “7-HYDROXY-PYRAZOLO[1,5-A] PYRIMIDINE COMPOUNDS AND THEIR USE AS CCR2 RECEPTOR ANTAGONISTS” (Proximagen Limited, priority 2010, published 2013).

A value given as a limit tells only on which side of the number the result lay.

Sequence of human CCR2 (P41597 whole entry): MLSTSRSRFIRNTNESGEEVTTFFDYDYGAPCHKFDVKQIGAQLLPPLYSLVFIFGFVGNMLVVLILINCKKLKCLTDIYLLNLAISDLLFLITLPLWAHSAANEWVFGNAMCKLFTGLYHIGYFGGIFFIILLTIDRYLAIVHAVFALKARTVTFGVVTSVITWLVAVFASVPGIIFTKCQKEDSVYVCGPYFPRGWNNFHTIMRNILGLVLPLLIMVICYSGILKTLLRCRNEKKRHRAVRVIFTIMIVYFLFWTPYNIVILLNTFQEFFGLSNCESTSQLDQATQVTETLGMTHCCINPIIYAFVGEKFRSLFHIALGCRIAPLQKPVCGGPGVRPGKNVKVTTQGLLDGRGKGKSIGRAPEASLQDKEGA

On to `CC(C)c1nc2ccnn2c(O)c1Cc1ccc(Cl)c(Cl)c1` [Example 41, 6-[(3,4-Dichlorophenyl)methyl]-5-(propan-2-yl)pyrazolo[1,5-a]pyrimidin-7-ol], for which the Ki is under 10 nM.

Turning to `CC(C)c1nc2ccnn2c(O)c1Cc1cc(Cl)cc(Cl)c1` [Example 42, 6-[(3,5-Dichlorophenyl)methyl]-5-(propan-2-yl)pyrazolo[1,5-a]pyrimidin-7-ol], the Ki is under 10 nM.

Consider `Oc1c(Cc2cccc(Cl)c2)c(C2CCC2)nc2ccnn12` [Example 43, 6-[(3-Chlorophenyl)methyl]-5-cyclobutyl-pyrazolo[1,5-a]pyrimidin-7-ol], for which the Ki is under 10 nM.

With `Oc1c(Cc2ccc(Cl)cc2)c(C2CCC2)nc2ccnn12` [Example 44, 6-[(4-Chlorophenyl)methyl]-5-cyclobutyl-pyrazolo[1,5-a]pyrimidin-7-ol], the Ki is under 10 nM.

In the case of `Oc1c(Cc2ccc(F)c(F)c2)c(C2CCC2)nc2ccnn12` [Example 45, 5-Cyclobutyl-6-[(3,4-difluorophenyl)-methyl]pyrazolo[1,5-a]pyrimidin-7-ol], the Ki is under 10 nM.

For `Oc1c(Cc2ccc(F)c(Cl)c2)c(C2CCC2)nc2ccnn12` [Example 46, 6-[(3-Chloro-4-fluorophenyl)methyl]-5-cyclobutylpyrazolo[1,5-a]pyrimidin-7-ol], the Ki is under 10 nM.

With `Oc1c(Cc2ccc(F)c(C(F)(F)F)c2)c(C2CCC2)nc2ccnn12` [Example 47, 5-Cyclobutyl-6-{[4-fluoro-3-(trifluoro-methyl)phenyl]methyl}pyrazolo[1,5-a]-pyrimidin-7-ol], the Ki is under 10 nM.

Regarding `Oc1c(Cc2cc(F)cc(C(F)(F)F)c2)c(C2CCC2)nc2ccnn12` [Example 48, 5-Cyclobutyl-6-{[3-fluoro-5-(trifluoro-methyl)phenyl]methyl}pyrazolo[1,5-a]-pyrimidin-7-ol], the Ki is under 10 nM.

As to `Oc1c(Cc2cc(F)c(F)c(F)c2)c(C2CCC2)nc2ccnn12` [Example 49, 5-Cyclobutyl-6-[(3,4,5-trifluorophenyl)-methyl]pyrazolo[1,5-a]pyrimidin-7-ol], the Ki is under 10 nM.

Regarding `Oc1c(Cc2ccc(Cl)c(Cl)c2)c(C2CCC2)nc2ccnn12` [Example 50, 5-Cyclobutyl-6-[(3,4-dichlorophenyl)-methyl]pyrazolo[1,5-a]pyrimidin-7-ol], the Ki is under 10 nM.

Take `COCc1nc2ccnn2c(O)c1Cc1ccc(Cl)cc1` [Example 51, 6-[(4-Chlorophenyl)methyl]-5-(methoxy-methyl)pyrazolo[1,5-a]pyrimidin-7-ol]: the Ki lay within 10 to 100 nM.

Take `COCc1nc2ccnn2c(O)c1Cc1ccc(Cl)c(F)c1` [Example 52, 6-[(4-Choro-3-fluorophenyl)methyl]-5-(methoxymethyl)pyrazolo[1,5-a]pyrimidin-7-ol]: the Ki is 10 to 100 nM.

In the case of `COCc1nc2ccnn2c(O)c1Cc1ccc(Cl)c(Cl)c1` [Example 53, 6-[(3,4-Dichlorophenyl)methyl]-5-(methoxymethyl)pyrazolo[1,5-a]pyrimidin-7-ol], the Ki is under 10 nM.

Consider `COCCc1nc2ccnn2c(O)c1Cc1ccc(Cl)cc1` [Example 54, 6-[(4-Chlorophenyl)methyl]-5-(2-methoxyethyl)pyrazolo[1,5-a]pyrimidin-7-ol], for which the Ki is 10 to 100 nM.

Take `Oc1c(Cc2ccc(Cl)c(Cl)c2)c(C(F)(F)F)nc2ccnn12` [Example 55, 6-[(3,4-Dichlorophenyl)methyl]-5-(trifluoromethyl)pyrazolo[1,5-a]pyrimidin-7-ol]: the Ki is under 10 nM.

As to `Oc1c(Cc2ccc(Cl)c(Cl)c2)c(C2CCCO2)nc2ccnn12` (stereo not shown) [Example 56, 6-[(3,4-Dichlorophenyl)methyl]-5-(oxolan-2-yl)pyrazolo[1,5-a]pyrimidin-7-ol], the Ki was under 10 nM.

Regarding `Cc1nc2c(C)cnn2c(O)c1Cc1ccc(Cl)cc1` [Example 57, 6-[(4-Chlorophenyl)methyl]-3,5-dimethyl-pyrazolo[1,5-a]pyrimidin-7-ol], the Ki fell in the range of 100 to 1000 nM.

As for `Cc1nc2c(Br)cnn2c(O)c1Cc1ccc(Cl)cc1` [Example 58, 3-Bromo-6-[(4-chlorophenyl)methyl]-5-methylpyrazolo[1,5-a]pyrimidin-7-ol], the Ki is 10 to 100 nM.

In the case of `Cc1nc2c(C#N)cnn2c(O)c1Cc1ccc(Cl)cc1` [Example 59, 6-[(4-Chlorophenyl)methyl]-7-hydroxy-5-methylpyrazolo[1,5-a]pyrimidine-3-carbonitrile], the Ki fell in the range of 100 to 1000 nM.

Regarding `Cc1nc2ccnn2c(O)c1Oc1ccc(Cl)c(Cl)c1` [Example 60, 6-(3,4-Dichlorophenoxy)-5-methyl-pyrazolo[1,5-a]pyrimidin-7-ol], the Ki lay in the range of 10 to 100 nM.

As to `CCc1nc2ccnn2c(O)c1Oc1cccc(C(F)(F)F)c1` [Example 61, 5-Ethyl-6-[3-(trifluoromethyl)phenoxy] pyrazolo[1,5-a]pyrimidin-7-ol], the Ki lay within 100 to 1000 nM.

`CCc1nc2ccnn2c(O)c1Oc1ccc(F)c(F)c1` [Example 62, 6-(3,4-Difluorophenoxy)-5-ethyl-pyrazolo[1,5-a]pyrimidin-7-ol]: the Ki was under 10 nM.

Regarding `CCc1nc2ccnn2c(O)c1Oc1ccc(F)c(Cl)c1` [Example 63, 6-(3-Chloro-4-fluorophenoxy)-5-ethyl-pyrazolo[1,5-a]pyrimidin-7-ol], the Ki fell in the range of 10 to 100 nM.

Turning to `CC(C)c1nc2ccnn2c(O)c1Oc1ccc(Br)cc1` [Example 66, 6-(4-Bromophenoxy)-5-(propan-2-yl)-pyrazolo[1,5-a]pyrimidin-7-ol], the Ki was under 10 nM.

For `CC(C)c1nc2ccnn2c(O)c1Oc1ccc(Cl)c(F)c1` [Example 67, 6-(4-Chloro-3-fluorophenoxy)-5-(propan-2-yl)pyrazolo[1,5-a]pyrimidin-7-ol], the Ki is under 10 nM.

Regarding `CC(C)c1nc2ccnn2c(O)c1Oc1ccc(Cl)c(Cl)c1` [Example 68, 6-(3,4-diChlorophenoxy)-5-(propan-2-yl)-pyrazolo[1,5-a]pyrimidin-7-ol], the Ki is under 10 nM.

As for `COC(=O)c1nc2ccnn2c(O)c1Cc1cccc(F)c1` [Example 69, Methyl 6-[(3-fluorophenyl)methyl]-7-hydroxypyrazolo[1,5-a]pyrimidine-5-carboxylate], the Ki fell in the range of 10 to 100 nM.

For the compound `CCOC(=O)c1nc2ccnn2c(O)c1Cc1cccc(C(F)(F)F)c1` [Example 71, Ethyl 7-hydroxy-6-{[3-(trifluoromethyl)-phenyl]methyl}pyrazolo[1,5-a]pyrimidine-5-carboxylate], the Ki was in the range of 10 to 100 nM.

As to `CCOC(=O)c1nc2ccnn2c(O)c1Cc1cccc(F)c1` [Example 73, Ethyl 6-[(3-fluorophenyl)methyl]-7-hydroxypyrazolo[1,5-a]pyrimidine-5-carboxylate], the Ki is 100 to 1000 nM.

Consider `CCOC(=O)c1nc2ccnn2c(O)c1Cc1ccc(Cl)c(F)c1` [Example 74, Ethyl 6-[(4-chloro-3-fluorophenyl)methyl]-7-hydroxy pyrazolo[1,5-a]pyrimidine-5-carboxylate], for which the Ki is under 10 nM.

With `CCOC(=O)c1nc2ccnn2c(O)c1Oc1ccc(Cl)c(F)c1` [Example 75, Ethyl 6-(4-chloro-3-fluorophenoxy)-7-hydroxypyrazolo[1,5-a]pyrimidine-5-carboxylate], the Ki lay within 10 to 100 nM.

With `CCOC(=O)c1nc2ccnn2c(O)c1Oc1ccc(Cl)c(Cl)c1` [Example 76, Ethyl 6-(3,4-dichlorophenoxy)-7-hydroxy-pyrazolo[1,5-a]pyrimidine-5-carboxylate], the Ki was in the range of 10 to 100 nM.

`Cc1nc2ccnn2c(O)c1Sc1cccc(F)c1` [Example 77, 6-[(3-Fluorophenyl)sulfanyl]-5-methyl-pyrazolo[1,5-a]pyrimidin-7-ol]: the Ki lay within 100 to 1000 nM.

Regarding `Cc1nc2ccnn2c(O)c1Nc1cccc(F)c1` [Example 78, 6-[(3-Fluorophenyl)amino]-5-methylpyrazolo[1,5-a]pyrimidin-7-ol], the Ki lay within 100 to 1000 nM.
